Source: patent publication US9102638B2, “Amidobenzothiazoles and process for the preparation thereof” (COUNCIL OF SCIENTIFIC & INDUSTRIAL RESEARCH, priority 2011, dated 2015)

Legend:
Assay type in all cases: cell-based
CNS cancer cell lines = experiment: In vitro activity against CNS cancer cell lines (panel range); conditions: Homo sapiens, read-out: GI50 values, range over the listed compounds and the panel
Method: (§1) The in vitro anticancer activity studies for these amidobenzothiazoles were carried out at the National Cancer Institute, Maryland, USA.
(§2) The amidobenzothiazoles have been tested against sixty human tumor cell lines derived from nine cancer types (leukemia cancer cell line, non-small cell lung cancer cell line, colon cancer cell line, CNS cancer cell line, melanoma cancer cell line, ovarian cancer cell line, renal cancer cell line, prostate cancer cell line and breast cancer cell lines). For these compounds results are expressed in GI50 values of that particular cancer cell at micro molar (μM) concentration as per NCI protocol.

HCT-116 = experiment: In vitro cytotoxicity, NCI screen: HCT-116 (Colon); conditions: Homo sapiens, read-out: GI50 values (μM conc.)
Method: as §1, §2

OVCAR-3 = experiment: In vitro cytotoxicity, NCI screen: OVCAR-3 (Ovarian); conditions: Homo sapiens; OVCAR-3, Ovarian panel, NCI protocol; read-out: GI50 values (μM conc.)
Method: as §1, §2

MDA-MB-468 = experiment: In vitro cytotoxicity, NCI screen: MDA-MB-468 (Breast); conditions: Homo sapiens, read-out: GI50 values (μM conc.)
Method: as §1, §2

OVCAR-4 = experiment: In vitro cytotoxicity, NCI screen: OVCAR-4 (Ovarian); conditions: Homo sapiens; OVCAR-4, Ovarian panel, NCI protocol; read-out: GI50 values (μM conc.)
Method: as §1, §2

U251 = experiment: In vitro cytotoxicity, NCI screen: U251 (CNS); conditions: Homo sapiens, U-251; U251, CNS panel, NCI protocol; read-out: GI50 values (μM conc.)
Method: as §1, §2

UACC-257 = experiment: In vitro cytotoxicity, NCI screen: UACC-257 (Melanoma); conditions: Homo sapiens; UACC-257, Melanoma panel, NCI protocol; read-out: GI50 values (μM conc.)
Method: as §1, §2

EKVX = experiment: In vitro cytotoxicity, NCI screen: EKVX (Non-small cell lung); conditions: Homo sapiens, Non-small cell lung panel, NCI protocol, read-out: GI50 values (μM conc.)
Method: as §1, §2

CAKI-1 = experiment: In vitro cytotoxicity, NCI screen: CAKI-1 (Renal); conditions: Homo sapiens; CAKI-1, Renal panel, NCI protocol; read-out: GI50 values (μM conc.)
Method: as §1, §2

SK-OV-3 = experiment: In vitro cytotoxicity, NCI screen: SK-OV-3 (Ovarian); conditions: Homo sapiens; SK-OV-3, Ovarian panel, NCI protocol; read-out: GI50 values (μM conc.)
Method: as §1, §2

MOLT-4 = experiment: In vitro cytotoxicity, NCI screen: MOLT-4 (Leukemia); conditions: Homo sapiens; MOLT-4, Leukemia panel, NCI protocol; read-out: GI50 values (μM conc.)
Method: as §1, §2

[1] = test system: prostate cancer cell lines; experiment: In vitro activity against prostate cancer cell lines (panel range); conditions: Homo sapiens, read-out: GI50 values, range over the listed compounds and the panel
Method: as §1, §2

HOP-92 = experiment: In vitro cytotoxicity, NCI screen: HOP-92 (Non-small cell lung); conditions: Homo sapiens; HOP-92, Non-small cell lung panel, NCI protocol; read-out: GI50 values (μM conc.)
Method: as §1, §2

MCF7 = experiment: In vitro cytotoxicity, NCI screen: MCF7 (Breast); conditions: Homo sapiens; MCF7, Breast panel, NCI protocol; read-out: GI50 values (μM conc.)
Method: as §1, §2

SF-295 = experiment: In vitro cytotoxicity, NCI screen: SF-295 (CNS); conditions: Homo sapiens; SF-295, CNS panel, NCI protocol; read-out: GI50 values (μM conc.)
Method: as §1, §2

A549/ATCC = experiment: In vitro cytotoxicity, NCI screen: A549/ATCC (Non-small cell lung); conditions: Homo sapiens, Non-small cell lung panel, NCI protocol, read-out: GI50 values (μM conc.)
Method: as §1, §2

OVCAR-8 = experiment: In vitro cytotoxicity, NCI screen: OVCAR-8 (Ovarian); conditions: Homo sapiens; OVCAR-8, Ovarian panel, NCI protocol; read-out: GI50 values (μM conc.)
Method: as §1, §2

[2] = test system: leukemia cancer cell lines; experiment: In vitro activity against leukemia cancer cell lines (panel range); conditions: Homo sapiens, read-out: GI50 values, range over the listed compounds and the panel
Method: as §1, §2

786-0 = experiment: In vitro cytotoxicity, NCI screen: 786-0 (Renal); conditions: Homo sapiens; 786-0, Renal panel, NCI protocol; read-out: GI50 values (μM conc.)
Method: as §1, §2

ACHN = experiment: In vitro cytotoxicity, NCI screen: ACHN (Renal); conditions: Homo sapiens, Renal panel, NCI protocol, read-out: GI50 values (μM conc.)
Method: as §1, §2

NCI-H522 = experiment: In vitro cytotoxicity, NCI screen: NCI-H522 (Non-small cell lung); conditions: Homo sapiens; NCI-H522, Non-small cell lung panel, NCI protocol; read-out: GI50 values (μM conc.)
Method: as §1, §2

BT-549 = experiment: In vitro cytotoxicity, NCI screen: BT-549 (Breast); conditions: Homo sapiens, read-out: GI50 values (μM conc.)
Method: as §1, §2

PC-3 = experiment: In vitro cytotoxicity, NCI screen: PC-3 (Prostate); conditions: Homo sapiens; PC-3, Prostate panel, NCI protocol; read-out: GI50 values (μM conc.)
Method: as §1, §2

SNB-75 = experiment: In vitro cytotoxicity, NCI screen: SNB-75 (CNS); conditions: Homo sapiens; SNB-75, CNS panel, NCI protocol; read-out: GI50 values (μM conc.)
Method: as §1, §2

RPMI-8226 = experiment: In vitro cytotoxicity, NCI screen: RPMI-8226 (Leukemia); conditions: Homo sapiens; RPMI-8226, Leukemia panel, NCI protocol; read-out: GI50 values (μM conc.)
Method: as §1, §2

HOP-62 = experiment: In vitro cytotoxicity, NCI screen: HOP-62 (Non-small cell lung); conditions: Homo sapiens; HOP-62, Non-small cell lung panel, NCI protocol; read-out: GI50 values (μM conc.)
Method: as §1, §2

TK-10 = experiment: In vitro cytotoxicity, NCI screen: TK-10 (Renal); conditions: Homo sapiens; TK-10, Renal panel, NCI protocol; read-out: GI50 values (μM conc.)
Method: as §1, §2

SW-620 = experiment: In vitro cytotoxicity, NCI screen: SW-620 (Colon); conditions: Homo sapiens; SW-620, Colon panel, NCI protocol; read-out: GI50 values (μM conc.)
Method: as §1, §2

NCI-H322M = experiment: In vitro cytotoxicity, NCI screen: NCI-H322M (Non-small cell lung); conditions: Homo sapiens, Non-small cell lung panel, NCI protocol, read-out: GI50 values (μM conc.)
Method: as §1, §2

HS 578T = experiment: In vitro cytotoxicity, NCI screen: HS 578T (Breast); conditions: Homo sapiens, read-out: GI50 values (μM conc.)
Method: as §1, §2

| Compound | GI50 (CNS cancer cell lines) [nM] | GI50 (HCT-116) [µM] | GI50 (OVCAR-3) [µM] | GI50 (MDA-MB-468) [µM] | GI50 (OVCAR-4) [µM] | GI50 (U251) [µM] | GI50 (UACC-257) [µM] | GI50 (EKVX) [µM] | GI50 (CAKI-1) [µM] | GI50 (SK-OV-3) [µM] | GI50 [1] [nM] | GI50 (HOP-92) [µM] | GI50 (MCF7) [µM] | GI50 (SF-295) [µM] | GI50 (A549/ATCC) [µM] | GI50 (OVCAR-8) [µM] | GI50 [2] [nM] | GI50 (786-0) [µM] | GI50 (ACHN) [µM] | GI50 (NCI-H522) [µM] | also measured |
| --- | --- | --- | --- | --- | --- | --- | --- | --- | --- | --- | --- | --- | --- | --- | --- | --- | --- | --- | --- | --- | --- |
| COc1ccc(/C=C\c2cc(OC)c(OC)c(OC)c2)cc1OCC(=O)Nc1nc2ccccc2s1 [Compound 8a, N1-(1,3-benzothiazol-2-yl)-2-{2-methoxy-5-[(Z)-2-(3,4,5-trimethoxyphenyl)-1-ethenyl]phenoxy}acetamide] | 45 to 18800 | 0.046 | 0.043 | 0.1 | 0.37 | 0.048 | 11 | 0.038 | 0.41 | 0.34 | 180 to 22900 | 0.039 | 0.051 | 0.22 | 0.34 | 0.25 | 37 to 29900 | 7.3 | 0.093 | 0.079 | GI50 (MOLT-4): 0.34 µM; GI50 (BT-549): 0.41 µM; GI50 (PC-3): 0.18 µM; GI50 (SNB-75): 0.046 µM; GI50 (RPMI-8226): 0.15 µM |
| COc1ccc(/C=C\c2cc(OC)c(OC)c(OC)c2)cc1OCC(=O)Nc1nc2ccc(F)cc2s1 [Compound 8e, N1-(6-fluoro-1,3-benzothiazol-2-yl)-2-{2-methoxy-5-[(Z)-2-(3,4,5-trimethoxyphenyl)-1-ethenyl]phenoxy}acetamide] | 45 to 18800 | 4.48 | 9.99 | 3.68 | 7.3 | 4.33 | 8.69 | 5.72 | 2.78 | 8 | 180 to 22900 | 5.73 | 2.3 | 4.29 | 5.99 | 7.15 | 37 to 29900 | 7.12 | 3.33 | 2.92 | GI50 (HOP-62): 5.7 µM; GI50 (TK-10): 9.89 µM; GI50 (SW-620): 65 µM; GI50 (MOLT-4): 3.07 µM; GI50 (BT-549): 16.7 µM; GI50 (NCI-H322M): > 100 µM; GI50 (HS 578T): > 100 µM; GI50 (PC-3): 6.74 µM; GI50 (SNB-75): 4.39 µM; GI50 (RPMI-8226): 6.36 µM |
| COc1ccc(C2CC(c3cc(OC)c(OC)c(OC)c3)=NN2C(C)=O)cc1OCC(=O)Nc1nc2ccc(C(F)(F)F)cc2s1 (stereo not drawn) [Compound 10i, N1-(6-(trifluoromethyl)-1,3-benzothiazol-2-yl)-2-{5-[1-acetyl-3-(3,4,5-trimethoxyphenyl)-4,5-dihydro-1H-5-pyrazolyl]-2-methoxyphenoxy}acetamide] | 45 to 18800 | 2.39 | 1.84 | 6.12 | 2.9 | 3.08 | 3.77 | 4.1 | 2.17 | 5.75 | 180 to 22900 | 1.7 | 4.02 | 3.06 | 2.16 | 3.36 | 37 to 29900 | 3.58 | 2.48 | 2.71 | GI50 (HOP-62): 2.2 µM; GI50 (TK-10): 2.85 µM; GI50 (SW-620): > 100 µM; GI50 (BT-549): 3.55 µM; GI50 (NCI-H322M): 3.67 µM; GI50 (HS 578T): 2.48 µM; GI50 (PC-3): 2.92 µM; GI50 (SNB-75): 1.55 µM; GI50 (RPMI-8226): 2.21 µM |
